Data from patent US20120108666A1, “Treatment of Cell Proliferative Disorders” (priority 2006, published 2012).

How the values were obtained:
PHA-activated PBMCs = assay: Inhibition of PHA-activated PBMCs (lymphocyte proliferation); assay type: cell-based, human; details: varying concentrations
Description: (§1) The jurkat E6.1 line is a Syk-deficient line; in fact, AV 61S after 7 days has no effect on this cell line (i.e., neither apoptosis nor inhibition, see […]). […] The viability study has been performed after 24 and 48 hours of incubation, each time for 3 evaluations; within 1, 3 and 6 hours.
FIGS. 1 and 2 show the effect of diluent on compounds of the invention.

E6.1 Jurkat cells = assay: Viability of E6.1 Jurkat cells after 24 and 48 hours (FIGS. 18, 19); assay type: cell-based; details: 24 and 48 hours of incubation
Description: FIG. 18 illustrates, in comparison with cyclosporin-treated Jurkat cells, the viability of E6.1 Jurkat cells treated with differing concentrations of AV 61S or AV 74S after 24 hours; and
FIG. 19 illustrates, in comparison with cyclosporin-treated Jurkat cells, the viability of E6.1 Jurkat cells treated with differing concentrations of AV 61S or AV 74S after 48 hours.
as §1

HL-60 cells = assay: XTT viability of HL-60 cells after 3 days, with and without piceatannol; assay type: cell-based, human; details: for viability of HL-60 cells, XTT method: 3 days
Excerpt: Secondly, the effect of compounds of the invention may be compared to the natural inhibitor of Syk, piceatannol.

[1] = test system: Syk-containing Jurkat cells; assay: Jurkat cell survival after seven days (FIG. 4); assay type: cell-based; details: 50 μg/ml
Description: FIG. 4 illustrates the effect of AV 61S and AV 74S on Jurkat cell survival after a seven day period;
as §1

[2] = test system: jurkat E6.1 line (Syk-deficient); assay: E6.1 Jurkat cell survival after seven days (FIG. 3); assay type: cell-based; details: after 7 days
Description: as §1

Row | SMILES | inhibitory effect on PHA-activated PBMCs (PHA-activated PBMCs; DMSO carrier) | inhibitory effect on PHA-activated PBMCs (PHA-activated PBMCs; PBS carrier) | killing of E6.1 Jurkat cells (viability study) (E6.1 Jurkat cells) | viability of HL-60 cells, XTT method (HL-60 cells; 50 μg/ml with Pic 10 μM) | viability of HL-60 cells, XTT method (HL-60 cells; 50 μg/ml with Pic 30 μM) | viability of HL-60 cells, XTT method (HL-60 cells; 50 μg/ml, no piceatannol) | viability of HL-60 cells, XTT method (HL-60 cells; 100 μg/ml with Pic 10 μM) | viability of HL-60 cells, XTT method (HL-60 cells; 100 μg/ml with Pic 30 μM) | viability of HL-60 cells, XTT method (HL-60 cells; 100 μg/ml, no piceatannol) | killing of Syk-containing Jurkat cells [1] | effect on Syk-deficient jurkat E6.1 line (apoptosis, inhibition) [2] | blocking of the inhibitory effect of AV 74S by piceatannol (HL-60 cells; AV 74S at 100 μg/ml, HL-60)
1 | CC(CO)OCC(C)OCC(C)OCC(C)OCC(C)OCC(C)OCC(C)OC[C@H](Cc1ccccc1)NC(=O)CCc1ccc(O)cc1 (stereo partly drawn) [AV 61S] | inhibitory effect | lesser inhibitory effect | do not kill them | 97 % of control | 83 % of control | 81 % of control | 59 % of control | 23 % of control | 36 % of control | ~100% | no effect | –
2 | Oc1cc(O)cc(/C=C/c2ccc(O)c(O)c2)c1 [piceatannol, reference compound] | – | – | – | – | – | – | – | – | – | – | – | at least partially blocks the inhibitory effect of AV 74S
